The source of these data is patent publication US12643903B2, “Bifunctional compounds for degradation of EGFR and related methods of use” (BeiGene, Ltd., priority 2020, dated 2026).

Usually DC50 stands for the midpoint of the concentration-degradation curve.

Holding throughout (format): cell-based
What all share (details): 16 h treatment, EGFR degradation by HTRF
(TR-FRET usually uses a lanthanide donor and a delayed reading to cut background.)

One assay addresses T1, EGFR LTC (Homo sapiens, UniProt P00533, C797S/L858R/T790M).
T1 construct: expressed in transfected cells; host or cells: BaF3
The assay can be described thus: Cell Degradation 3: EGFR degradation in BaF3 cells (LTC), HTRF assay. The method, then:
(§1) Cell Degradation 3 Cell Treatment
(§2) BaF3 cells are treated with compounds diluted in 0.2% DMSO, dilution is done according to the following protocol: (1) make 500× stock solution in DMSO from 5 mM by 4-fold dilution, total 8 doses were included; (2) make 2× solution in cell culture medium by transferring 0.5 μl 500× stock solution into 125 μl medium; (3) 30 μl of 2× solution is added to cells and incubate for 16 h.
(§3) After 16 h treatment, add 20 μl 4×lysis buffer to each well; seal the plate and incubate 1 hour at room temperature on a plate shaker; Once the cells are lysed, 16 μL of cell lysate are transferred to a PE 384-well HTRF detection plate (for triple mutant cells, the lysate were diluted by the qual volume 1×lysis buffer before transfer); 4 μL of pre-mixed HTRF antibodies are added to each well; Cover the plate with a plate sealer, spin 1000 rpm for 1 min, Incubate overnight at room temperature; Read on BMG PheraStar with HTRF protocol (337 nm-665 nm-620 nm).
(§4) The IC50 (DC50) value of a compound can be obtained by fitting the following equation Y=Bottom+(TOP−Bottom)/(1+((IC50/X)^hillslope))
(§5) Wherein, X and Y are known values, and IC50, Hillslope, Top and Bottom are the parameters obtained by fitting with software. Y is the inhibition percentage (calculated from the equation), X is the concentration of the compound; IC50 is the concentration of the compound when the 50% inhibition is reached. The smaller the IC50 value is, the stronger the inhibitory ability of the compound is. Vice versa, the higher the IC50 value is, the weaker the ability the inhibitory ability of the compound is; Hillslope represents the slope of the fitted curve, generally around 1*; Bottom represents the minimum value of the curve obtained by data fitting, which is generally 0%±20%; Top represents the maximum value of the curve obtained by data fitting, which is generally 100%±20%. The experimental data were fitted by calculating and analyzing with Dotmatics data analysis software.

A further assay has as its system EGFR DTC. Description: Cell Degradation 3: EGFR degradation in BaF3 cells (DTC), HTRF assay. The protocol: as §1, §2, §3, §4, §5
A further assay concerns the target T2, EGFR (Homo sapiens, UniProt P00533, DEL746-750).
T2 construct: endogenous in cells; host or cells: HCC827
Description: Cell Degradation 2: EGFR degradation in HCC827 cells, HTRF assay. In short, it runs like this:
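Compound-treated HCC827 cells were lysed after 16 h and EGFR measured by HTRF (337 nm excitation, 665/620 nm emission) after overnight antibody incubation at room temperature. DC50 came from a four-parameter fit of percent inhibition against compound concentration.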

T1 sequence (P00533 25-1210 T790M/C797S/L858R): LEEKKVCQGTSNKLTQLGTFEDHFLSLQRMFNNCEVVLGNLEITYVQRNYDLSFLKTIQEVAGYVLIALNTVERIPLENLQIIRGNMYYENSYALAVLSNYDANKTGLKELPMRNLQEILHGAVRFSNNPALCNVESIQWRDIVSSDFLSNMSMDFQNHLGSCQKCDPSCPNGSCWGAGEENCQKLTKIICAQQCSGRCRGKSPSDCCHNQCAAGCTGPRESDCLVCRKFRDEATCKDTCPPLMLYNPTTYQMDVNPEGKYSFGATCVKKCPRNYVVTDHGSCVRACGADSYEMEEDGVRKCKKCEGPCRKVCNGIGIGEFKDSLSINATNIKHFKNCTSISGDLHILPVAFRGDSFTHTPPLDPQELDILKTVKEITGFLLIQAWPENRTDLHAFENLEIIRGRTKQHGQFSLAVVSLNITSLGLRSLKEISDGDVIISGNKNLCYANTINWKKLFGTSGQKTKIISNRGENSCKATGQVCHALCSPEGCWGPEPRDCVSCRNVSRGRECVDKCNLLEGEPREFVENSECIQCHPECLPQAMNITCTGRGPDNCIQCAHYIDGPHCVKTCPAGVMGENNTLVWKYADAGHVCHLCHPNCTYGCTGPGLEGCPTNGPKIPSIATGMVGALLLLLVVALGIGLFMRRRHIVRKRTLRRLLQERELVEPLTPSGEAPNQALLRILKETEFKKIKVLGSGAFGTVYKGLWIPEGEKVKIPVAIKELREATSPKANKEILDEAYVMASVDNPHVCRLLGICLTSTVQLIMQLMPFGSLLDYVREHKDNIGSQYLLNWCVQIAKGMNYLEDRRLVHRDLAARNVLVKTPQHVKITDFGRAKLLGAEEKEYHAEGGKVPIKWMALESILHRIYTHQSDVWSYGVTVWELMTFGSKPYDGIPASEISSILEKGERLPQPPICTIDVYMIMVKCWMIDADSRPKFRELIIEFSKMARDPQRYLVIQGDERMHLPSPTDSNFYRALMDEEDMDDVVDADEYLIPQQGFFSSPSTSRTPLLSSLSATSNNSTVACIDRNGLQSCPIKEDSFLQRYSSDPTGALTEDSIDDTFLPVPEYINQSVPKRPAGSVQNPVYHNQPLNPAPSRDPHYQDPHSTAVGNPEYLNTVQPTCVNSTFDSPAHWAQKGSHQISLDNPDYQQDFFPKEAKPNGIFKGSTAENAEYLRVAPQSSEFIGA
T2 sequence (P00533 with tags, fused parts or gaps DEL746-750): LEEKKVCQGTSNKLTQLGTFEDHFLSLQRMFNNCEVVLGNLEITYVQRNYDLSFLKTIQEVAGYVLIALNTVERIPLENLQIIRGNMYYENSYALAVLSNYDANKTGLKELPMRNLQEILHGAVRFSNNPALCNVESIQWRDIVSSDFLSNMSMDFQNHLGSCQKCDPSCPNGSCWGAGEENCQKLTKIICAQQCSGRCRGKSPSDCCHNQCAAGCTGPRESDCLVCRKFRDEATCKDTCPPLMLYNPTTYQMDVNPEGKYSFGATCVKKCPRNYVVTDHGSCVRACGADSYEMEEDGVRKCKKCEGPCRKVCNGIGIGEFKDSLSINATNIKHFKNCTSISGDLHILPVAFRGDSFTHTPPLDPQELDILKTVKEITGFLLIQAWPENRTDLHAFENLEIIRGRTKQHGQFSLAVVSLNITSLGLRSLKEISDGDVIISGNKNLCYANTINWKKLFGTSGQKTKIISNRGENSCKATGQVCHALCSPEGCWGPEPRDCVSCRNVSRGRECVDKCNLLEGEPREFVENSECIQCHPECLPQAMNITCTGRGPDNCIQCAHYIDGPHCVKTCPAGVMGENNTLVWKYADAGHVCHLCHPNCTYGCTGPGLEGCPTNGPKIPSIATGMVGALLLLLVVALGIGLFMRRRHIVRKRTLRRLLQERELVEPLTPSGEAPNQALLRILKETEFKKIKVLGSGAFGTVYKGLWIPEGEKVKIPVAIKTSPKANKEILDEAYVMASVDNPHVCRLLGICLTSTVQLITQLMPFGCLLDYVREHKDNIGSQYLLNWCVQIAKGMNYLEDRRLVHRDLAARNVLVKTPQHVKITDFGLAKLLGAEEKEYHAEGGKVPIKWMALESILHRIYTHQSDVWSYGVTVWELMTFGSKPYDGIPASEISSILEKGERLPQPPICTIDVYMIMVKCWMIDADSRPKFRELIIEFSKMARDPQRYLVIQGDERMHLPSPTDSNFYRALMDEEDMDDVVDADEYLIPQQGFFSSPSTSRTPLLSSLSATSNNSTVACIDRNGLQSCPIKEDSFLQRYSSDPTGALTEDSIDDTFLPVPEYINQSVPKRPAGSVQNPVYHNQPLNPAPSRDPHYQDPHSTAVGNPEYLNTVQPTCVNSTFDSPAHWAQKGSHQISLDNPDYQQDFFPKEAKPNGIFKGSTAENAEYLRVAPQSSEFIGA
T2 sequence (Q96SW2 whole entry partner): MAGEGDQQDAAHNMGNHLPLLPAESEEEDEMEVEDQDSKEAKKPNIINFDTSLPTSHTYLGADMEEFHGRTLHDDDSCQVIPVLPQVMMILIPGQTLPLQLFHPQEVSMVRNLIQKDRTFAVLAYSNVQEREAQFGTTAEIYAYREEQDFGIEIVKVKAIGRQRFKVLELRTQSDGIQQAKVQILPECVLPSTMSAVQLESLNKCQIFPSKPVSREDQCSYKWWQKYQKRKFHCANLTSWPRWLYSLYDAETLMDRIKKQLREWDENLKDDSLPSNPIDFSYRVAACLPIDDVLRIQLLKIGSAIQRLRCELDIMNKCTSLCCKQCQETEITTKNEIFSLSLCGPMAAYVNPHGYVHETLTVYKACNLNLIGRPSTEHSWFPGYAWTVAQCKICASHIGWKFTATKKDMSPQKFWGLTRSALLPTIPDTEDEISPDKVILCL

Consider `COc1cc(N2CCC(N3CCN(CCc4cc(F)c(C5CCC(=O)NC5=O)c(F)c4)CC3=O)CC2)c(C)cc1Nc1ncc(Br)c(Nc2cccc3c2N(S(C)(=O)=O)CC3)n1` (centres unmarked) [Example 185, 3-(4-(2-(4-(1-(4-((5-bromo-4-((1-(methylsulfonyl)indolin-7-yl)amino)pyrimidin-2-yl)amino)-5-methoxy-2-methylphenyl)piperidin-4-yl)-3-oxopiperazin-1-yl)ethyl)-2,6-difluorophenyl)piperidine-2,6-dione], for which the values for the DC50 on EGFR LTC and in the assay with EGFR DTC were 18 nM and 4 nM, respectively.
Take `COc1cc(N2CCC(N3CCN(C(=O)C4CN(c5ccc6c(c5)CN(C5CCC(=O)NC5=O)C6=O)C4)CC3)CC2)c(C)cc1Nc1ncc(Br)c(Nc2cccc3c2N(S(C)(=O)=O)CC3)n1` (centres unmarked) [Example 172, 3-(5-(3-(4-(1-(4-((5-bromo-4-((1-(methylsulfonyl)indolin-7-yl)amino)pyrimidin-2-yl)amino)-5-methoxy-2-methylphenyl)piperidin-4-yl)piperazine-1-carbonyl)azetidin-1-yl)-1-oxoisoindolin-2-yl)piperidine-2,6-dione]: the results for the 50% degradation concentration (DC50) at EGFR LTC, on EGFR and in the assay on EGFR DTC were 9 nM, 2 nM and 4 nM, respectively.
Consider `COc1cc(N2CCC(N3CCN(C[C@H]4C[C@H](N(C)c5ccc6c(c5)C(=O)N(C5CCC(=O)NC5=O)C6=O)C4)CC3)CC2)c(C)cc1Nc1ncc(Br)c(Nc2cccc3c2N(S(C)(=O)=O)CC3)n1` (some centres unmarked) [Example 165, 5-(((1r,3r)-3-((4-(1-(4-((5-bromo-4-((1-(methylsulfonyl)indolin-7-yl)amino)pyrimidin-2-yl)amino)-5-methoxy-2-methylphenyl)piperidin-4-yl)piperazin-1-yl)methyl)cyclobutyl)(methyl)amino)-2-(2,6-dioxopiperidin-3-yl)isoindoline-1,3-dione], for which the values for the DC50 on EGFR LTC and with EGFR DTC were 100 nM and 91 nM, respectively.
With `COc1cc(N2CCC(N3CCN(C(=O)C4CCN(c5cc(F)c(C6CCC(=O)NC6=O)c(F)c5)C4)CC3)CC2)c(C)cc1Nc1ncc(Br)c(Nc2cccc3c2N(S(C)(=O)=O)CC3)n1` (centres unmarked) [Example 187, 3-(4-(3-(4-(1-(4-((5-bromo-4-((1-(methylsulfonyl)indolin-7-yl)amino)pyrimidin-2-yl)amino)-5-methoxy-2-methylphenyl)piperidin-4-yl)piperazine-1-carbonyl)pyrrolidin-1-yl)-2,6-difluorophenyl)piperidine-2,6-dione], the DC50 at EGFR LTC came to 19 nM; with EGFR DTC it was 14 nM.
Consider `COc1cc(N2CCC(N3CCN(C4CCN(c5cccc(C6CCC(=O)NC6=O)c5)CC4)CC3)CC2)c(C)cc1Nc1ncc(Br)c(Nc2cccc3c2N(S(C)(=O)=O)CC3)n1` (centres unmarked) [Example 177, 3-(3-(4-(4-(1-(4-((5-bromo-4-((1-(methylsulfonyl)indolin-7-yl)amino)pyrimidin-2-yl)amino)-5-methoxy-2-methylphenyl)piperidin-4-yl)piperazin-1-yl)piperidin-1-yl)phenyl)piperidine-2,6-dione], for which the DC50 was 123 nM on EGFR LTC and more than 10000 nM with EGFR DTC.
For the compound `COc1cc(N2CCC(N3CCN(CC4CN(c5cc(F)c(C6CCC(=O)NC6=O)c(F)c5)C4)CC3)CC2)c(C)cc1Nc1ncc(Br)c(Nc2cccc3c2N(S(C)(=O)=O)CC3)n1` (centres unmarked) [Example 184, 3-(4-(3-((4-(1-(4-((5-bromo-4-((1-(methylsulfonyl)indolin-7-yl)amino)pyrimidin-2-yl)amino)-5-methoxy-2-methylphenyl)piperidin-4-yl)piperazin-1-yl)methyl)azetidin-1-yl)-2,6-difluorophenyl)piperidine-2,6-dione], the DC50 on EGFR LTC stood at 33 nM; in the assay on EGFR DTC, 27 nM.
With `CCc1cc(Nc2ncc(Br)c(Nc3cccc4c3N(S(C)(=O)=O)CC4)n2)c(OC)cc1N1CCC(N2CCN(CCC3CCN(c4cc(F)c(C5CCC(=O)NC5=O)c(F)c4)CC3)CC2)CC1` (centres unmarked) [Example 160, 3-(4-(4-(2-(4-(1-(4-((5-bromo-4-((1-(methylsulfonyl)indolin-7-yl)amino)pyrimidin-2-yl)amino)-2-ethyl-5-methoxyphenyl)piperidin-4-yl)piperazin-1-yl)ethyl)piperidin-1-yl)-2,6-difluorophenyl)piperidine-2,6-dione], the results for the DC50 at EGFR LTC and with EGFR DTC were 162 nM and 150 nM, respectively.
Consider `COc1cc(N2CCC(N3CCN(CCNc4cccc5c4CN(C4CCC(=O)NC4=O)C5=O)CC3)CC2)c(C)cc1Nc1ncc(Br)c(Nc2cccc3c2N(S(C)(=O)=O)CC3)n1` (centres unmarked) [Example 173, 3-(4-((2-(4-(1-(4-((5-bromo-4-((1-(methylsulfonyl)indolin-7-yl)amino)pyrimidin-2-yl)amino)-5-methoxy-2-methylphenyl)piperidin-4-yl)piperazin-1-yl)ethyl)amino)-1-oxoisoindolin-2-yl)piperidine-2,6-dione], for which the half-maximal degradation concentration (DC50) at EGFR LTC was determined as 27 nM; with EGFR DTC, 15 nM.
For `COc1cc(N2CCC(N3CCN(CC4CCN(c5cc(F)c(C6CCC(=O)NC6=O)c(F)c5)CC4)CC3)CC2)c(C)cc1Nc1ncc(Br)c(Nc2cccc3c2N(S(C)(=O)=O)CC3)n1` (centres unmarked) [Example 181, 3-(4-(4-((4-(1-(4-((5-bromo-4-((1-(methylsulfonyl)indolin-7-yl)amino)pyrimidin-2-yl)amino)-5-methoxy-2-methylphenyl)piperidin-4-yl)piperazin-1-yl)methyl)piperidin-1-yl)-2,6-difluorophenyl)piperidine-2,6-dione], the values for the DC50 on EGFR LTC and in the assay on EGFR DTC were 64 nM and 43 nM, respectively.
As for `COc1cc(N2CCC(N3CCN(C(=O)[C@H]4C[C@H](N(C)c5ccc(C6CCC(=O)NC6=O)cc5)C4)CC3)CC2)c(C)cc1Nc1ncc(Br)c(Nc2cccc3c2N(S(C)(=O)=O)CC3)n1` (some centres unmarked) [Example 170, 3-(4-(((1r,3r)-3-(4-(1-(4-((5-bromo-4-((1-(methylsulfonyl)indolin-7-yl)amino)pyrimidin-2-yl)amino)-5-methoxy-2-methylphenyl)piperidin-4-yl)piperazine-1-carbonyl)cyclobutyl)(methyl)amino)phenyl)piperidine-2,6-dione], the DC50 at EGFR LTC came out at 23 nM; in the assay on EGFR DTC, 8 nM.
For the compound `COc1cc(N2CCC(N3CCN(CC4CCN(c5ccc6c(c5)CN(C5CCC(=O)NC5=O)C6=O)CC4)CC3)CC2)c(C)cc1Nc1ncc(Br)c(Nc2cccc3c2N(S(C)(=O)=O)CC3)n1` (centres unmarked) [Example 175, 3-(5-(4-((4-(1-(4-((5-bromo-4-((1-(methylsulfonyl)indolin-7-yl)amino)pyrimidin-2-yl)amino)-5-methoxy-2-methylphenyl)piperidin-4-yl)piperazin-1-yl)methyl)piperidin-1-yl)-1-oxoisoindolin-2-yl)piperidine-2,6-dione], the results for the 50% degradation concentration (DC50) at EGFR LTC and in the assay on EGFR DTC were 31 nM and 17 nM, respectively.
In the case of `COc1cc(N2CCC(N3CCN(C(=O)C4CCN(c5ccc6c(c5)C(=O)N(C5CCC(=O)NC5=O)C6=O)CC4)CC3)CC2)c(C)cc1Nc1ncc(Cl)c(Nc2cccc3c2N(S(C)(=O)=O)CC3)n1` (centres unmarked) [Example 178, 5-(4-(4-(1-(4-((5-chloro-4-((1-(methylsulfonyl)indolin-7-yl)amino)pyrimidin-2-yl)amino)-5-methoxy-2-methylphenyl)piperidin-4-yl)piperazine-1-carbonyl)piperidin-1-yl)-2-(2,6-dioxopiperidin-3-yl)isoindoline-1,3-dione], the DC50 on EGFR LTC stood at 23 nM; with EGFR DTC, 8 nM.
In the case of `COc1cc(N2CCC(N3CCN(C(=O)C4CN(c5ccc6c(c5)C(=O)N(C5CCC(=O)NC5=O)C6)C4)CC3)CC2)c(C)cc1Nc1ncc(Br)c(Nc2cccc3c2N(S(C)(=O)=O)CC3)n1` (centres unmarked) [Example 171, 3-(6-(3-(4-(1-(4-((5-bromo-4-((1-(methylsulfonyl)indolin-7-yl)amino)pyrimidin-2-yl)amino)-5-methoxy-2-methylphenyl)piperidin-4-yl)piperazine-1-carbonyl)azetidin-1-yl)-1-oxoisoindolin-2-yl)piperidine-2,6-dione], the DC50 on EGFR LTC worked out at 9 nM; in the assay on EGFR DTC it was 4 nM.
On to `COc1cc(N2CCC(N3CCN(CCc4ccc(NC5CCC(=O)NC5=O)cc4)CC3)CC2)c(C)cc1Nc1ncc(Br)c(Nc2cccc3c2N(S(C)(=O)=O)CC3)n1` (centres unmarked) [Example 152, 3-((4-(2-(4-(1-(4-((5-bromo-4-((1-(methylsulfonyl)indolin-7-yl)amino)pyrimidin-2-yl)amino)-5-methoxy-2-methylphenyl)piperidin-4-yl)piperazin-1-yl)ethyl)phenyl)amino)piperidine-2,6-dione], for which the results for the DC50 on EGFR LTC and in the assay with EGFR DTC were 27 nM and 66 nM, respectively.
